Experimental data as given in ChEMBL document CHEMBL4823249, “Discovery of a Pyrimidinedione Derivative as a Potent and Orally Bioavailable Axl Inhibitor” (J Med Chem, 2021).

Columns and labels:
[1] = target: T1, Hepatocyte growth factor receptor (Homo sapiens, UniProt P08581); experiment: Inhibition of recombinant human MET (974 to end residues) using KKKGQEEEYVFIE as substrate incubated for 40 mins in presence of [gamma-33ATP by scintillation counting based radiometry assay
[2] = target: Tyrosine-protein kinase JAK3 (Homo sapiens, UniProt P52333); experiment: Inhibition of recombinant human JAK3 (781 to end residues) using GGEEEEYFELVKKKK as substrate measured after 40 mins in presence of [gamm33P]ATP by scintillation counting method
Tyrosine-protein kinase JAK3, sequence (P52333 whole entry): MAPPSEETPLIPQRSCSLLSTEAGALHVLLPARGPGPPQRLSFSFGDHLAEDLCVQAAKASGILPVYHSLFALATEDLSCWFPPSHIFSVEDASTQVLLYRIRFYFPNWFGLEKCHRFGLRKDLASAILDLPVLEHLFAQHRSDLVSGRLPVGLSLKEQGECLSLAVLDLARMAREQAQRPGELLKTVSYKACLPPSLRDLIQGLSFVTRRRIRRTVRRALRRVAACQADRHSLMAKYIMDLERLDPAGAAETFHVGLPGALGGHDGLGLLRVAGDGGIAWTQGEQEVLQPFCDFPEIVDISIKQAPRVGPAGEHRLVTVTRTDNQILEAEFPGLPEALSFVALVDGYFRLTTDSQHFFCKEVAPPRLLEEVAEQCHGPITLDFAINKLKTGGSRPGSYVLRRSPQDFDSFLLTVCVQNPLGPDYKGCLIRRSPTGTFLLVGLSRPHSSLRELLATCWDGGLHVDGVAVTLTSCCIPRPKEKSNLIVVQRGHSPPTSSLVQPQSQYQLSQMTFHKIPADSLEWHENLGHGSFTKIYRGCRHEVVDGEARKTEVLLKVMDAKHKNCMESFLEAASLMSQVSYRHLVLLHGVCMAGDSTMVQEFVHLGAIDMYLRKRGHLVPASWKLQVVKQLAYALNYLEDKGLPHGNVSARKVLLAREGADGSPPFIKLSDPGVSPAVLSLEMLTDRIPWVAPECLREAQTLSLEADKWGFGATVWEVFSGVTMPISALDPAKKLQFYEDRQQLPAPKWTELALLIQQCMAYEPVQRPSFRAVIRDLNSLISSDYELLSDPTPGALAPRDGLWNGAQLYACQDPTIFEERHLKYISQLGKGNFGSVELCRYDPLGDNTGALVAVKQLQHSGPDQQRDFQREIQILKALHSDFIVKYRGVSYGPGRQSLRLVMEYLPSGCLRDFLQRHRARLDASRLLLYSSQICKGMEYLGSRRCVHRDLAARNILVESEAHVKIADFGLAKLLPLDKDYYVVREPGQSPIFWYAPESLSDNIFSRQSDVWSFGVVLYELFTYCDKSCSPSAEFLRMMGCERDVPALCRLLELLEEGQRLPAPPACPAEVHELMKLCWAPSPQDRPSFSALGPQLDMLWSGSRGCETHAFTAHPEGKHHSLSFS

[3] = Half life in ICR mouse at 1 mg/kg, iv measured upto 24 hrs by LC-MS analysis; assay type: ADME, organism-based; conditions: in vivo
[4] = Oral availability in ICR mouse at 3 mg/kg measured upto 24 hrs by LC-MS analysis; assay type: ADME, organism-based; conditions: in vivo
BT-474 = experiment: Antiproliferative activity against human BT-474 cells incubated for 72 hrs by SRB or CCK8 assay; assay type: functional, cell-based; conditions: BT-474, 72 h
HCC4006 = experiment: Antiproliferative activity against human HCC4006 cells incubated for 72 hrs by SRB or CCK8 assay; assay type: functional, cell-based; conditions: HCC4006, 72 h
[5] = target: T1, Hepatocyte growth factor receptor; experiment: Inhibition of MET signaling in human MKN45 cells assessed as reduction in phosphorylation of ERK after 2 hrs by Western blotting analysis; assay type: cell-based; conditions: MKN-45, dose 10-100 nM
NCI-H1299 = experiment: Antiproliferative activity against human NCI-H1299 cells incubated for 72 hrs by SRB or CCK8 assay; assay type: functional, cell-based; conditions: NCI-H1299, 72 h
BaF3 = experiment: Antiproliferative activity against mouse BaF3/TEL-AXL cells incubated for 72 hrs by SRB or CCK8 assay; conditions: BaF3, 72 h
[6] = target: Mitogen-activated protein kinase kinase kinase kinase 2 (Homo sapiens, UniProt Q12851); experiment: Inhibition of recombinant human GCK (1 to 473 residues) using myelin basic protein as substrate incubated for 40 mins in presence of [gamma-33ATP] by scintillation counting based radiometry assay
Mitogen-activated protein kinase kinase kinase kinase 2, sequence (Q12851 whole entry, the tested form may be a part): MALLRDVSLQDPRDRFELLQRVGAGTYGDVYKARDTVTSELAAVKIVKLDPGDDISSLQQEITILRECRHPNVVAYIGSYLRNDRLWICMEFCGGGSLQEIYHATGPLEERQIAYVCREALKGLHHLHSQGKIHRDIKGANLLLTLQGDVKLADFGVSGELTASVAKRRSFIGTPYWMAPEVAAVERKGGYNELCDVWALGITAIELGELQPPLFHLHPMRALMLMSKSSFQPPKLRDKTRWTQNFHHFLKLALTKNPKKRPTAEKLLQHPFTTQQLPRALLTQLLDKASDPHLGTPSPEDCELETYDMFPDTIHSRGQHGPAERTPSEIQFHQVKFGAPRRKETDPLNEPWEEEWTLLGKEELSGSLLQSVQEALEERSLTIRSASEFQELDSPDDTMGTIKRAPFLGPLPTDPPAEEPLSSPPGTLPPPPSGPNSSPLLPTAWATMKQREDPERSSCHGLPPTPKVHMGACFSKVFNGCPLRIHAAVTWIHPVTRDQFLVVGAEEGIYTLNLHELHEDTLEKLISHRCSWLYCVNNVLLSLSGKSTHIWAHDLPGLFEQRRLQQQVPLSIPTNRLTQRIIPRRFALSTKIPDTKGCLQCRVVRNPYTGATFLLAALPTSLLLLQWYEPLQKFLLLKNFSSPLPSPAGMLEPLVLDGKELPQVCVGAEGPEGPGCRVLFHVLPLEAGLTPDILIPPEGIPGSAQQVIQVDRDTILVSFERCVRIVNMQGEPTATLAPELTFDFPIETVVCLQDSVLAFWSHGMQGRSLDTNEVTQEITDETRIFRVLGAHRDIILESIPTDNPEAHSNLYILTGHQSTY

[7] = target: T1, Hepatocyte growth factor receptor; experiment: Inhibition of MET signaling in human EBC1 cells assessed as reduction in phosphorylation of AKT after 2 hrs by Western blotting analysis; assay type: cell-based; conditions: EBC-1, dose 10-100 nM

T1 sequence (P08581 whole entry): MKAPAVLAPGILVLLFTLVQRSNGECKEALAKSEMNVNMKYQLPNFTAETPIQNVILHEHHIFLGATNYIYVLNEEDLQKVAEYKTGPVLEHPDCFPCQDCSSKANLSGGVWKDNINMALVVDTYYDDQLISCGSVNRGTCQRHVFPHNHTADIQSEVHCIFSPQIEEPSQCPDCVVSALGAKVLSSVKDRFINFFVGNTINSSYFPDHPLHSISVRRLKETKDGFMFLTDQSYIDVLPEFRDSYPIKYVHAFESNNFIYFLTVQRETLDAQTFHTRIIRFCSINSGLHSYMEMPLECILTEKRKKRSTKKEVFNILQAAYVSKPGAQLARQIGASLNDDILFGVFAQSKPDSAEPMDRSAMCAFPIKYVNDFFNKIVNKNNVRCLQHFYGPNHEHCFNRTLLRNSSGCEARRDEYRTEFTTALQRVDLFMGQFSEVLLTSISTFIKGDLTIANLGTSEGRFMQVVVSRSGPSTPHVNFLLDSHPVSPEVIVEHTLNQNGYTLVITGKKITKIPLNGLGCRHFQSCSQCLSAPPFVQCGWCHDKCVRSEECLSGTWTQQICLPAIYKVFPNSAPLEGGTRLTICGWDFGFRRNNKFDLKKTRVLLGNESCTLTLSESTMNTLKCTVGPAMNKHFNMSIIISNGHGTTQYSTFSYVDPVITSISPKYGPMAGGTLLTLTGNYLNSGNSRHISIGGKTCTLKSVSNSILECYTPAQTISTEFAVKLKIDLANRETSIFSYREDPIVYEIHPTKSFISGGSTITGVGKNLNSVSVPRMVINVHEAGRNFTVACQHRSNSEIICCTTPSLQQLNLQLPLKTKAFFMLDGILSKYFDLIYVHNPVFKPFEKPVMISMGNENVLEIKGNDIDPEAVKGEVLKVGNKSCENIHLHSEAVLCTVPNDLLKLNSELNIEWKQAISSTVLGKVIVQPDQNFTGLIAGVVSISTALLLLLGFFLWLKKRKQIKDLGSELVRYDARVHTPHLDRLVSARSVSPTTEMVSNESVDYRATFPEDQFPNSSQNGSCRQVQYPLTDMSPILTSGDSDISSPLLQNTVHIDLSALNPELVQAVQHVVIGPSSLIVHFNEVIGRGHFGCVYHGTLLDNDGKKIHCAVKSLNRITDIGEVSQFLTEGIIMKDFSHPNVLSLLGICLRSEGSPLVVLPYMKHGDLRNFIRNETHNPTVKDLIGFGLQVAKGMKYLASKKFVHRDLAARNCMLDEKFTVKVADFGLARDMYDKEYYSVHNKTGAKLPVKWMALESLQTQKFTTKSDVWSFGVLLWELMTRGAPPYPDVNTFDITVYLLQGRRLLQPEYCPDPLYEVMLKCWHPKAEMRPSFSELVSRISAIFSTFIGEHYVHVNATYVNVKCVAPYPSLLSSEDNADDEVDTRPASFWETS

CC(C)n1cc(C(=O)Nc2ccc(Oc3ccnc(NC(=O)C4CC4)c3)c(F)c2)c(=O)n(-c2ccc(F)cc2)c1=O
IC50 [1]: 0.8 nM | IC50 [2]: > 1000 nM | half-life [3]: 5.57 h | bioavailability [4]: 114% | IC50 (BT-474): > 10000 nM | IC50 (HCC4006): > 10000 nM | inhibition [5]: Dose-Dependent Effect | IC50 (NCI-H1299): > 10000 nM | IC50 (BaF3): < 0.005 nM | IC50 [6]: > 1000 nM | inhibition [7]: Dose-Dependent Effect
